Data reported in patent US20240158446A1, “CYCLIC COMPOUND HAVING SELECTIVE INHIBITORY ACTION ON KRAS OVER HRAS AND NRAS” (CHUGAI SEIYAKU KABUSHIKI KAISHA, priority 2021, published 2024).
Like-named read-outs stand apart in the source and are kept apart here. *1 amine or outer side, *2 acyl side, *3 side chain or, on linkers, in order; H or OH if unused. Where a SMILES comes first, the peptide text is derived from it. Bridges are numbered along the chain shown (N, C = ends). [ ]: non-standard residue; d: D form. The star is where a group is joined. hPhe(3-Cl-4-CF3) = N[C@@H](CCc1ccc(C(F)(F)F)c(Cl)c1)C(=O)O; X31 = COCCCN([C@@H](Cc1ccc(C(F)(F)F)cc1)C(=O)[*:2])[*:1]; NPrPhe(4-CF3) = CCCN[C@@H](Cc1ccc(C(F)(F)F)cc1)C(=O)O; Morpholine(3S-CO) = O=C(O)[C@@H]1COCCN1; NMeGly(cPent) = CN[C@H](C(=O)O)C1CCCC1; Hyp = O=C(O)[C@@H]1C[C@@H](O)CN1; NMeD = CN[C@@H](CC(=O)O)C(=O)O; NMeL = CN[C@@H](CC(C)C)C(=O)O; Morpholide = C1CN(*)CCO1; NMeA = CN[C@@H](C)C(=O)O; Ac5c = NC1(C(=O)O)CCCC1; Aze = O=C(O)[C@@H]1CCN1; Ac4c = NC1(C(=O)O)CCC1; Sar = CNCC(=O)O

Tests used:
[1] = target: GDP-bound KRAS wild-type protein (Homo sapiens, UniProt P01116); assay: Binding to KRAS by surface plasmon resonance (SPR), Single Cycle Kinetics; settings: GDP-bound KRAS wild-type protein, read-out: KRAS KD
Chain of GDP-bound KRAS wild-type protein (P01116 whole entry): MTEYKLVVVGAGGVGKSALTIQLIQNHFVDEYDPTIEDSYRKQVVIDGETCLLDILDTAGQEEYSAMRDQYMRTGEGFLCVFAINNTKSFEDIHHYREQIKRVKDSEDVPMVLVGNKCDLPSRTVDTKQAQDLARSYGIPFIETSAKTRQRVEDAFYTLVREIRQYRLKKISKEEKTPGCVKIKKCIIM

[2] = target: GDP-bound HRAS wild-type protein (Homo sapiens, UniProt P01112); assay: Binding to HRAS by surface plasmon resonance (SPR), Single Cycle Kinetics; settings: for HRAS/KRAS (ratio of KD value for HRAS to KD value for KRAS): SPR, GDP-bound HRAS wild-type protein vs GDP-bound KRAS wild-type protein; for HRAS/KRAS (ratio of KD value with respect to GDP-bound HRAS wild-type protein to KD value with respect to KRAS): SPR KD ratio HRAS/KRAS, class symbols
Chain of GDP-bound HRAS wild-type protein (P01112 whole entry): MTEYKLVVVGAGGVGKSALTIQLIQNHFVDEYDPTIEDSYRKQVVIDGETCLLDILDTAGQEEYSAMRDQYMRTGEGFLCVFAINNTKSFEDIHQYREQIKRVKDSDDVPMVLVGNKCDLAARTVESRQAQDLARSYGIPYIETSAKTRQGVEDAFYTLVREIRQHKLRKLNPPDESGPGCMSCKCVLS

[3] = target: GDP-bound NRAS wild-type protein (Homo sapiens, UniProt P01111); assay: Binding to NRAS by surface plasmon resonance (SPR), Single Cycle Kinetics; settings: for NRAS/KRAS (ratio of KD value for NRAS to KD value for KRAS): SPR, GDP-bound NRAS wild-type protein vs GDP-bound KRAS wild-type protein; for NRAS/KRAS (ratio of KD value with respect to GDP-bound NRAS wild-type protein to KD value with respect to KRAS): SPR KD ratio NRAS/KRAS, class symbols
Chain of GDP-bound NRAS wild-type protein (P01111 whole entry): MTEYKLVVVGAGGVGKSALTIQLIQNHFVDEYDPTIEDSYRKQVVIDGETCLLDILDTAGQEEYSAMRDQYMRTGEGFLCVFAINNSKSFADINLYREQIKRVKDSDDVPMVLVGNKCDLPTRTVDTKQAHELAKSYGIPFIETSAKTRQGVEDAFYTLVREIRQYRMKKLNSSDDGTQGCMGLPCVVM

[4] = SPR Single Cycle Kinetics, 1:1 binding model

SMILES	Kd ([1]; SPR, Single Cycle Kinetics)	Kd [1, 4]	HRAS/KRAS (ratio of KD value for HRAS to KD value for KRAS) [2]	NRAS/KRAS (ratio of KD value for NRAS to KD value for KRAS) [3]	HRAS/KRAS (ratio of KD value with respect to GDP-bound HRAS wild-type protein to KD value with respect to KRAS) [2]	NRAS/KRAS (ratio of KD value with respect to GDP-bound NRAS wild-type protein to KD value with respect to KRAS) [3]
CCC[C@H]1C(=O)N[C@@H]([C@@H](C)CC)C(=O)N(C)CC(=O)N(C)[C@H]2C/C=C\CCN(C2=O)[C@@H](Cc2ccc(C)cc2)C(=O)N(C)CC(=O)N[C@@H](CCc2ccc(C(F)(F)F)c(Cl)c2)C(=O)N2C[C@H](OCC)C[C@H]2C(=O)NC2(CC(C)(C)C2)C(=O)N(C)[C@@H](CC(C)C)C(=O)N(C)[C@H](C(=O)N(C)C)CC(=O)N1C [PP2224]	380 pM	–	A (a compound having 10 or more and less than 20 is denoted as A)	A (a compound having 10 or more and less than 20 is denoted as A)	–	–
CC[C@H](C)[C@@H]1NC(=O)[C@H](CC(C)C)N(C)C(=O)C[C@@H](C(=O)N2CCOCC2)N(C)C(=O)[C@H](C2CCCC2)N(C)C(=O)C2(CCCC2)NC(=O)[C@@H]2CCCN2C(=O)[C@H](CCc2ccc(C(F)(F)F)c(Cl)c2)NC(=O)CN(C)C(=O)[C@H](Cc2ccc(C(F)(F)F)cc2)N(CCCOC)C(=O)[C@@H]2CCN2C(=O)[C@H](C)N(C)C1=O [PP0119] ([NMeL]I[NMeA][Aze][X31][Sar][hPhe(3-Cl-4-CF3)]P[Ac5c][NMeGly(cPent)][NMeD]-Morpholide; lactam N-11)	–	100 pM	C (A compound having a KD ratio of 0.1 or more and less than 3 is denoted as C)	C (A compound having a KD ratio of 0.1 or more and less than 3 is denoted as C)	–	–
CCCN1C(=O)[C@@H]2CCN2C(=O)[C@H](C)N(C)C(=O)[C@H]([C@@H](C)CC)NC(=O)[C@H](CC(C)C)N(C)C(=O)C[C@@H](C(=O)N2CCOCC2)N(C)C(=O)[C@H](C2CCCC2)N(C)C(=O)C2(CCCC2)NC(=O)[C@@H]2COCCN2C(=O)[C@H](CCc2ccc(C(F)(F)F)c(Cl)c2)NC(=O)CN(C)C(=O)[C@@H]1Cc1ccc(C(F)(F)F)cc1 [PP0286] ([NMeL]I[NMeA][Aze][NPrPhe(4-CF3)][Sar][hPhe(3-Cl-4-CF3)][Morpholine(3S-CO)][Ac5c][NMeGly(cPent)][NMeD]-Morpholide; lactam N-11)	–	520 pM	B (a compound having 3 or more and less than 10 is denoted as B)	C (A compound having a KD ratio of 0.1 or more and less than 3 is denoted as C)	–	–
CCCN1C(=O)CN(C)C(=O)[C@@H]2CCN2C(=O)[C@H]([C@@H](C)CC)NC(=O)[C@H](CC(C)C)N(C)C(=O)C[C@@H](C(=O)N2CCOCC2)N(C)C(=O)[C@H](C2CCCC2)N(C)C(=O)C2(CCC2)NC(=O)[C@@H]2C[C@@H](OCC)CN2C(=O)[C@H](CCc2ccc(C(F)(F)F)c(Cl)c2)NC(=O)CN(C)C(=O)[C@@H]1Cc1ccc(C(F)(F)F)cc1 [PP0405] ([NMeL]I[Aze][Sar][NPrPhe(4-CF3)][Sar][hPhe(3-Cl-4-CF3)][Hyp](Et)[Ac4c][NMeGly(cPent)][NMeD]-Morpholide; lactam N-11)	–	310 pM	C (A compound having a KD ratio of 0.1 or more and less than 3 is denoted as C)	B (a compound having 3 or more and less than 10 is denoted as B)	–	–

The next lines start with results.

Kd ([1]; SPR, Single Cycle Kinetics)	Kd [1, 4]	SMILES	HRAS/KRAS (ratio of KD value for HRAS to KD value for KRAS) [2]	NRAS/KRAS (ratio of KD value for NRAS to KD value for KRAS) [3]	HRAS/KRAS (ratio of KD value with respect to GDP-bound HRAS wild-type protein to KD value with respect to KRAS) [2]	NRAS/KRAS (ratio of KD value with respect to GDP-bound NRAS wild-type protein to KD value with respect to KRAS) [3]
–	490 pM	CCC[C@H]1C(=O)N[C@@H]([C@@H](C)CC)C(=O)N(C)CC(=O)N(C)[C@H]2C/C=C\CCN(C2=O)[C@@H](Cc2ccc(C)cc2)C(=O)N(C)CC(=O)N[C@@H](CCc2cc(F)c(C(F)F)c(F)c2)C(=O)N2C[C@H](OCC)C[C@H]2C(=O)NC2(CC(C)(C)C2)C(=O)N(C)[C@@H](C2CCCC2)C(=O)N(C)[C@H](C(=O)N(C)C)CC(=O)N1C [PP2782]	–	–	A (a compound having 10 or more and less than 20 is denoted as A)	A (a compound having 10 or more and less than 20 is denoted as A)
–	240 pM	C#CC[C@H]1C(=O)N[C@@H]([C@@H](C)CC)C(=O)N(C)CC(=O)N(C)[C@H]2C/C=C\CCN(C2=O)[C@@H](Cc2ccc(C(F)(F)F)cc2)C(=O)N(C)CC(=O)N[C@@H](CCc2ccc(C(F)(F)F)c(OC)c2)C(=O)N2CCOC[C@H]2C(=O)NC2(CC(C)(C)C2)C(=O)N(C)[C@@H](C2CCCC2)C(=O)N(C)[C@H](C(=O)N(C)C)CC(=O)N1C [PP2905]	–	–	A (a compound having 10 or more and less than 20 is denoted as A)	AA (a compound having 20 or more is denoted as AA)
